Measured values reported in patent US11154060B2, “Microbiocidal oxadiazole derivatives” (SYNGENTA PARTICIPATIONS AG, priority 2016, dated 2021).

Legend:
[1] = system: Puccinia recondita f. sp. tritici; test: Puccinia recondita f. sp. tritici / wheat / leaf disc preventative (brown rust); format: in vivo; details: foliar, wheat leaf segments cv. Kanzler, inoculated 1 day after application, assessed 7-9 days after application, read-out: control of Puccinia recondita f. sp. tritici compared to untreated control
Description: Leaf disks or leaf segments of various plant species are cut from plants grown in a greenhouse. The cut leaf disks or segments are placed in multiwell plates (24-well format) onto water agar. The leaf disks are sprayed with a test solution before (preventative) or after (curative) inoculation. Compounds to be tested are prepared as DMSO solutions (max. 10 mg/ml) which are diluted to the appropriate concentration with 0.025% Tween20 just before spraying. The inoculated leaf disks or segments are incubated under defined conditions (temperature, relative humidity, light, etc.) according to the respective test system. A single evaluation of disease level is carried out 3 to 14 days after inoculation, depending on the pathosystem. Percent disease control relative to the untreated check leaf disks or segments is then calculated. Wheat leaf segments cv. Kanzler are placed on agar in multiwell plates (24-well format) and sprayed with the formulated test compound diluted in water. The leaf disks are inoculated with a spore suspension of the fungus 1 day after application. The inoculated leaf segments are incubated at 19° C. and 75% rh under a light regime of 12 h light/12 h darkness in a climate cabinet and the activity of a compound is assessed as percent disease control compared to untreated when an appropriate level of disease damage appears in untreated check leaf segments (7-9 days after application).

[2] = system: Puccinia recondita f. sp. tritici; test: Puccinia recondita f. sp. tritici / wheat / leaf disc curative (brown rust); format: in vivo; details: foliar, wheat leaf segments cv. Kanzler, applied 1 day after inoculation, assessed 6-8 days after application, read-out: control of Puccinia recondita f. sp. tritici compared to untreated control
Description: Leaf disks or leaf segments of various plant species are cut from plants grown in a greenhouse. The cut leaf disks or segments are placed in multiwell plates (24-well format) onto water agar. The leaf disks are sprayed with a test solution before (preventative) or after (curative) inoculation. Compounds to be tested are prepared as DMSO solutions (max. 10 mg/ml) which are diluted to the appropriate concentration with 0.025% Tween20 just before spraying. The inoculated leaf disks or segments are incubated under defined conditions (temperature, relative humidity, light, etc.) according to the respective test system. A single evaluation of disease level is carried out 3 to 14 days after inoculation, depending on the pathosystem. Percent disease control relative to the untreated check leaf disks or segments is then calculated. Wheat leaf segments cv. Kanzler are placed on agar in multiwell plates (24-well format). The leaf segments are inoculated with a spore suspension of the fungus. Plates are stored in darkness at 19° C. and 75% rh. The formulated test compound diluted in water is applied 1 day after inoculation. The leaf segments are incubated at 19° C. and 75% rh under a light regime of 12 h light/12 h darkness in a climate cabinet and the activity of a compound is assessed as percent disease control compared to untreated when an appropriate level of disease damage appears in untreated check leaf segments (6-8 days after application).

[3] = system: Glomerella lagenarium (Colletotrichum lagenarium); test: Glomerella lagenarium (Colletotrichum lagenarium) liquid culture / cucumber / preventative (anthracnose); format: cell-based; details: Colletotrichum orbiculare, liquid culture in PDB, 24° C., 3-4 days after application, read-out: control of Glomerella lagenarium compared to untreated control (inhibition of growth, photometric)
Description: Mycelia fragments or conidia suspensions of a fungus prepared either freshly from liquid cultures of the fungus or from cryogenic storage, are directly mixed into nutrient broth. DMSO solutions of the test compound (max. 10 mg/ml) are diluted with 0.025% Tween20 by a factor of 50 and 10 μl of this solution is pipetted into a microtiter plate (96-well format). The nutrient broth containing the fungal spores/mycelia fragments is then added to give an end concentration of the tested compound. The test plates are incubated in the dark at 24° C. and 96% relative humidity. The inhibition of fungal growth is determined photometrically after 2 to 7 days, depending on the pathosystem, and percent antifungal activity relative to the untreated check is calculated. Conidia of the fungus from cryogenic storage are directly mixed into nutrient broth (PDB potato dextrose broth). After placing a (DMSO) solution of test compound into a microtiter plate (96-well format), the nutrient broth containing the fungal spores is added. The test plates are incubated at 24° C. and the inhibition of growth is measured photometrically 3-4 days after application.

Phakopsora pachyrhizi = Phakopsora pachyrhizi / soybean / leaf disc preventative (Asian soybean rust); format: in vivo; details: foliar, soybean leaf disks, inoculated one day after application, assessed 12-14 days after application, read-out: control of Phakopsora pachyrhizi compared to untreated control
Description: Leaf disks or leaf segments of various plant species are cut from plants grown in a greenhouse. The cut leaf disks or segments are placed in multiwell plates (24-well format) onto water agar. The leaf disks are sprayed with a test solution before (preventative) or after (curative) inoculation. Compounds to be tested are prepared as DMSO solutions (max. 10 mg/ml) which are diluted to the appropriate concentration with 0.025% Tween20 just before spraying. The inoculated leaf disks or segments are incubated under defined conditions (temperature, relative humidity, light, etc.) according to the respective test system. A single evaluation of disease level is carried out 3 to 14 days after inoculation, depending on the pathosystem. Percent disease control relative to the untreated check leaf disks or segments is then calculated. Soybean leaf disks are placed on water agar in multiwell plates (24-well format) and sprayed with the formulated test compound diluted in water. One day after application leaf discs are inoculated by spraying a spore suspension on the lower leaf surface. After an incubation period in a climate cabinet of 24-36 hours in darkness at 20° C. and 75% rh leaf disc are kept at 20° C. with 12 h light/12 h darkness and 75% rh. The activity of a compound is assessed as percent disease control compared to untreated when an appropriate level of disease damage appears in untreated check leaf disks (12-14 days after application).

| melting point | SMILES | pest or weed control at 200 ppm [1] | pest or weed control at 200 ppm [2] | inhibition at 20 ppm [3] | pest or weed control at 200 ppm (Phakopsora pachyrhizi) |
| --- | --- | --- | --- | --- | --- |
| 131 to 138 °C | CONC(=O)Cc1ccc(-c2noc(C(F)(F)F)n2)cc1 [Compound 2.13, N-methoxy-2-[4-[5-(trifluoromethyl)-1,2,4-oxadiazol-3-yl]phenyl]acetamide] | ≥ 80% | ≥ 80% | ≥ 80% | ≥ 80% |
| 135 to 138 °C | O=C(Cc1ccc(-c2noc(C(F)(F)F)n2)cc1)NOCc1ccccc1 [Compound 2.15, N-benzyloxy-2-[4-[5-(trifluoromethyl)-1,2,4-oxadiazol-3-yl]phenyl]acetamide] | ≥ 80% | – | ≥ 80% | – |
| 114 to 116 °C | O=C(Cc1ccc(-c2noc(C(F)(F)F)n2)cc1F)NOCC(F)F [Compound 1.23, N-(2,2-difluoroethoxy)-2-[2-fluoro-4-[5-(trifluoromethyl)-1,2,4-oxadiazol-3-yl]phenyl]acetamide] | ≥ 80% | ≥ 80% | ≥ 80% | – |
| 134 to 137 °C | O=C(NOCC(F)F)c1ccc(-c2noc(C(F)(F)F)n2)cc1 [Compound 2.18, N-(2,2-difluoroethoxy)-4-[5-(trifluoromethyl)-1,2,4-oxadiazol-3-yl]benzamide] | ≥ 80% | ≥ 80% | ≥ 80% | – |

Second part, the molecule before the results:

| SMILES | melting point | pest or weed control at 200 ppm [1] | pest or weed control at 200 ppm [2] | inhibition at 20 ppm [3] | pest or weed control at 200 ppm (Phakopsora pachyrhizi) |
| --- | --- | --- | --- | --- | --- |
| O=C(NOCC(F)F)c1ccc(-c2noc(C(F)(F)F)n2)c(F)c1 [Compound 1.14, N-(2,2-difluoroethoxy)-3-fluoro-4-[5-(trifluoromethyl)-1,2,4-oxadiazol-3-yl]benzamide] | 138 to 140 °C | ≥ 80% | ≥ 80% | ≥ 80% | – |
| CCONC(=O)Cc1ccc(-c2noc(C(F)(F)F)n2)c(F)c1 [Compound 1.22, N-ethoxy-2-[3-fluoro-4-[5-(trifluoromethyl)-1,2,4-oxadiazol-3-yl]phenyl]acetamide] | 150 to 152 °C | ≥ 80% | ≥ 80% | ≥ 80% | ≥ 80% |
| O=C(NOCc1ccccc1)c1ccc(-c2noc(C(F)(F)F)n2)c(F)c1 [Compound 1.16, N-benzyloxy-3-fluoro-4-[5-(trifluoromethyl)-1,2,4-oxadiazol-3-yl]benzamide] | 178 to 181 °C | ≥ 80% | ≥ 80% | ≥ 80% | ≥ 80% |
| CONC(=O)Cc1ccc(-c2noc(C(F)(F)F)n2)c(F)c1 [Compound 1.17, 2-[3-fluoro-4-[5-(trifluoromethyl)-1,2,4-oxadiazol-3-yl]phenyl]-N-methoxy-acetamide] | 131 to 133 °C | ≥ 80% | ≥ 80% | ≥ 80% | ≥ 80% |
| C=CCONC(=O)c1ccc(-c2noc(C(F)(F)F)n2)c(F)c1 [Compound 1.15, N-allyloxy-3-fluoro-4-[5-(trifluoromethyl)-1,2,4-oxadiazol-3-yl]benzamide] | 132 to 136 °C | ≥ 80% | ≥ 80% | ≥ 80% | – |
| CCONC(=O)Cc1ccc(-c2noc(C(F)(F)F)n2)cc1F [Compound 1.21, N-ethoxy-2-[2-fluoro-4-[5-(trifluoromethyl)-1,2,4-oxadiazol-3-yl]phenyl]acetamide] | 81 to 83 °C | ≥ 80% | ≥ 80% | ≥ 80% | – |
| CONC(=O)Cc1ccc(-c2noc(C(F)(F)F)n2)cc1F [Compound 1.20, 2-[2-fluoro-4-[5-(trifluoromethyl)-1,2,4-oxadiazol-3-yl]phenyl]-N-methoxy-acetamide] | 150 to 152 °C | ≥ 80% | ≥ 80% | ≥ 80% | – |
